Reference: patent US10683296B2, “TLR7 agonist trifluoroacetate salt and crystalline form B thereof, preparation methods and uses” (CHIA TAI TIANQING PHARMACEUTICAL GROUP CO., LTD., priority 2016, dated 2020)

Assays:
[1] = Stability tests of crystal form B (high temperature, high humidity, light); format: physicochemical; details: general statement; no data of Examples 2-4 printed
Procedure: The crystal form B prepared in Example 1 was tested in the accelerated test under high temperature conditions for stability in accordance with Guidelines for the Stability Test of Pharmaceutical Ingredients and Pharmaceutical Preparations (Chinese Pharmacopoeia 2010 Appendix XIXC).
The crystal form B was placed in an open-clean container at 60° C. The samples were taken for test on day 10, day 20 and day 30, respectively. The results were compared with the initial test result on day 0.
The crystal form B prepared in Example 1 was tested in the accelerated test under high humidity conditions for stability in accordance with Guidelines for the Stability Test of Pharmaceutical Ingredients and Pharmaceutical Preparations (Chinese Pharmacopoeia 2010 Appendix XIXC).
The crystal form B was subjected to an accelerated test in a constant temperature and humidity vessel under the conditions of 40° C./75% humidity (open). The samples were taken for test on day 30, day 60 and day 90, respectively. The results were compared with the initial test result on day 0.
The crystal form B prepared in Example 1 under light conditions was tested for stability in accordance with Guidelines for the Stability Test of Pharmaceutical Ingredients and Pharmaceutical Preparations (Chinese Pharmacopoeia 2010 Appendix XIXC).
The crystal form B was placed in an illumination environment of 5000 Lx±500 Lx. […]

[2] = system: human peripheral blood mononuclear cells (PBMC); assay: Peripheral blood mononuclear cell cytokine stimulating test; format: cell-based; details: for TNF-α MEC / IFN-α MEC: human PBMC, 24 h, CBA flow cytometry; for IFN-α MEC: lowest drug concentration stimulating the production of 30 pg/mL of IFN-α
Procedure: The purpose of this example is to determine the expression level of cytokines 24 h after stimulation to human peripheral blood mononuclear cells (PBMC) with the compound of formula I.
The cell supernatant was assayed without dilution and the levels of IFN-α were directly determined. The compound of formula was firstly formulated into 20 mM DMSO stock solution and was gradient diluted with cell medium in 10-fold with the total number of 11 diluting points. The compounds in 9 diluting points (the highest concentration was 200 μmol/L) were added into 96-well plate with 50 μL in each well. Fresh human peripheral blood mononuclear cells were inoculated, with 150 μL in each well containing 450,000 cells. The cell culture plate was incubated in an incubator at 37° C., 5% CO2 for 24 h. After incubation, the culture plate was centrifuged at 1200 rpm for 5 min and the supernatant was collected and stored at −20° C. for determination. The determination of cytokine was performed using Cytometric Bead Array (CBA) of BD-Pharmingen on flow cytometer. Using the above determining method, the lowest drug concentration stimulating the production of 30 pg/mL of IFN-α was designated as the MEC value in the cytokine stimulating test.

[3] = molecular target: T1, Toll-like receptor 7 (HEK-blue hTLR7 cell) (Homo sapiens, UniProt Q9NYK1); assay: Toll-like receptor 7 in vitro receptor binding activity screen (HEK-blue hTLR7 cell, alkaline phosphatase reporter); format: cell-based; details: versus control GS-9620
T1 construct: host or cells: HEK-blue hTLR7 cell (HEK293-derived reporter line)
T1 sequence (Q9NYK1 27-1049): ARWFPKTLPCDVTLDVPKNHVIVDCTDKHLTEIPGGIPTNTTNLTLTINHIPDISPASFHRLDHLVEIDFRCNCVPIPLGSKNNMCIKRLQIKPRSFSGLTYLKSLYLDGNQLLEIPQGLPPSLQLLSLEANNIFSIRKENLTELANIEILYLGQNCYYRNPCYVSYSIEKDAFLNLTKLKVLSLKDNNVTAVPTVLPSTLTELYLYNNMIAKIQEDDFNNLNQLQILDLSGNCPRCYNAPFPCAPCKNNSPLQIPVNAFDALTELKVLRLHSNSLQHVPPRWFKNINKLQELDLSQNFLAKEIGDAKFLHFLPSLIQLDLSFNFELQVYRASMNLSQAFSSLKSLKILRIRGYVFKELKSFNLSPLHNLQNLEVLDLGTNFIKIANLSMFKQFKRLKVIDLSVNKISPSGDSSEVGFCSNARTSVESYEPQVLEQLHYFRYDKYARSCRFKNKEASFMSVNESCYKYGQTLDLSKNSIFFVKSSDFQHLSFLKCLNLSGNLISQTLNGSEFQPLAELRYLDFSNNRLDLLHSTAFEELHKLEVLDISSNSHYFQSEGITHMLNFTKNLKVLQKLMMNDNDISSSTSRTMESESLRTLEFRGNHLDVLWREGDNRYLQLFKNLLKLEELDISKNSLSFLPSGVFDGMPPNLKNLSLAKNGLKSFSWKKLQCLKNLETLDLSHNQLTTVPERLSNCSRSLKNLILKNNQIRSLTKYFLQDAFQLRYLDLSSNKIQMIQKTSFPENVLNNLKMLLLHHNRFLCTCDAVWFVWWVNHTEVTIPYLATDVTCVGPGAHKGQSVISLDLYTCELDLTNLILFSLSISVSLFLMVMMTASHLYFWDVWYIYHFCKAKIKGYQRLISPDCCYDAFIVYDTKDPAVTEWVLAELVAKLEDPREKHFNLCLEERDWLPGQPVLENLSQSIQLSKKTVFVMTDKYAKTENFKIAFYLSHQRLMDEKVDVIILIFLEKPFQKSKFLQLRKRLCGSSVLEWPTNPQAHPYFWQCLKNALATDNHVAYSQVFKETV
Procedure: (§1) • HEK-blue hTLR7 cell and HEK-blue hTLR8 cell (available from InvivoGen) • DMEM medium • heat inactivated fetal bovine serum • Anti Mycoplasma reagent Normocin™ • bleomycin • blasticidin
(§2) The structures of GS-9620 and R848 used are as follows, wherein the preparation of GS-9620 could be referred to the process disclosed in US20100143301; R848 was commercially available from ABGENT (IMG-2208, specification: 0.5 mg).
(§3) The compounds were gradient diluted with DMSO in 3-fold using liquid work station POD starting at a concentration of 10 mmol/L and 10 points were diluted (2nd column to 11th column, and each point was duplicated). At 12th column, 1 μL of 5 mg/mL positive compound R848 was added as positive control; and at 1st column, 1 μL of DMSO was added as negative control. Each well contained 1 μL of DMSO. • 2. The cells in culture flask were collected and the cell density was diluted to 250,000 cells/mL. • 3. 200 μL (50,000 cells/well) of cell suspension was added into prepared compound plate and the final concentration of DMSO in each well was 0.5%. • 4. The culture plates containing cells and the compounds were incubated in CO2 incubator for 24 h at 37° C., 5% CO2. • 5. […] After 1 h, the content of alkaline phosphatase in 20 μL of supernatant was determined using Microplate Reader OD650. • 7. […]

[4] = molecular target: T2, Toll-like receptor 8 (HEK-blue hTLR8 cell) (Homo sapiens, UniProt Q9NR97); assay: Toll-like receptor 8 in vitro receptor binding activity screen (HEK-blue hTLR8 cell, alkaline phosphatase reporter); format: cell-based; details: versus control GS-9620
T2 construct: host or cells: HEK-blue hTLR8 cell (HEK293-derived reporter line)
T2 sequence (Q9NR97 27-1041): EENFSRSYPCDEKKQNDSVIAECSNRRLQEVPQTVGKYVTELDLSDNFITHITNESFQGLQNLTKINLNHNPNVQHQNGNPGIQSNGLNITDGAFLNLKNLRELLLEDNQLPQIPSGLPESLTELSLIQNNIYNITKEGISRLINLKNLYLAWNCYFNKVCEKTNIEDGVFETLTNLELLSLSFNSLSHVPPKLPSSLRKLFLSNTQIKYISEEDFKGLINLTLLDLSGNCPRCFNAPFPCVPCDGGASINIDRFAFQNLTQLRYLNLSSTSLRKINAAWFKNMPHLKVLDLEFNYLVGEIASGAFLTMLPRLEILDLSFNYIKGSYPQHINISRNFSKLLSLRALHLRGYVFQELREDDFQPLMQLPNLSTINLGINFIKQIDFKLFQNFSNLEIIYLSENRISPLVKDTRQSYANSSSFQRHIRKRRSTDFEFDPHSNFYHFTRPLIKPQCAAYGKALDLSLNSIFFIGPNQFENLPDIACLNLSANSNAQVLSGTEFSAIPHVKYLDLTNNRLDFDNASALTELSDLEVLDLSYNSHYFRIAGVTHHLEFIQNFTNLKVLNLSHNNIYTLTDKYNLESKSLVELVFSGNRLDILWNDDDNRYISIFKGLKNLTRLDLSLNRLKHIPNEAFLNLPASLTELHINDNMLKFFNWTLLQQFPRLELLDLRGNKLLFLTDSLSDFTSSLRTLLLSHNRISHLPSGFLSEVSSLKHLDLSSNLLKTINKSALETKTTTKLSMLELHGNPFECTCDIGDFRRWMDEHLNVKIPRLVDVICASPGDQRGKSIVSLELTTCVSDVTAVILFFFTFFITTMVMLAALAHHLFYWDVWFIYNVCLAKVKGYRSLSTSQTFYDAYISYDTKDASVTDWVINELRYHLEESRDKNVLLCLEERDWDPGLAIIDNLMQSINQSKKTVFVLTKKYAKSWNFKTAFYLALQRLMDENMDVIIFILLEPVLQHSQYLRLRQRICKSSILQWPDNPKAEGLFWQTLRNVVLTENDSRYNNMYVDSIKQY
Procedure: as §1, §2, §3

SMILES	stability of the crystal form [1]	TNF-α MEC [2] [nM]	IFN-α MEC [2] [nM]	in vitro receptor binding activity to Toll-like receptor 7 compared with the control GS-9620 [3]	in vitro receptor binding activity to Toll-like receptor 8 compared with the control GS-9620 [4]	TNF-α inducing activity compared with the control GS-9620 ([2]; versus control GS-9620)	in vitro IFN-α inducing activity of PBMCs compared with the control GS-9620 ([2]; versus control GS-9620)
CCCCOc1nc(N)c2[nH]cc(Cc3ccc(CN4CCCC4)cc3)c2n1.O=C(O)C(F)(F)F [Crystal Form B of Trifluoroacetate of 2-butoxy-7-(4-(pyrrolidin-1-ylmethyl)benzyl)-5H-pyrrolo[3,2-d]pyrimidin-4-amine]	good stability						
CCCCOc1nc(N)c2c(n1)N(Cc1cccc(CN3CCCC3)c1)CC(=O)N2 [GS-9620, reference compound]		500	50				
CCCCOc1nc(N)c2[nH]cc(Cc3ccc(CN4CCCC4)cc3)c2n1 [The compound of formula I, 2-butoxy-7-(4-(pyrrolidin-1-ylmethyl)benzyl)-5H-pyrrolo[3,2-d]pyrimidin-4-amine]		500	5	higher	lower	comparable	better
